Bridge positions count the residues as written; N and C are the ends. Ends that are not written are not given here.
Tested on: patients with chronic idiopathic constipation (CIC)
Test: Second phase 3 CIC trial: CSBM weekly responders by week
Format: in vivo, human
Details: MRA
Excerpt: Both trials include a two-week pre-treatment baseline period, a 12-week treatment period, and a two-week post-treatment period. The phase 3 CIC program was designed to support regulatory submission in the U. S.
The primary endpoint for both trials is the proportion of durable overall responders (%), which is the current regulatory endpoint required for U.S. approval in CIC. The FDA has defined a durable overall responder as a patient who fulfills both ≧3 complete spontaneous bowel movements (CSBMs) per week plus an increase of ≧1 CSBM from baseline in the same week, for 9 out of the 12 treatment weeks. In addition, the same patient must be an overall responder for at least 3 of the last 4 treatment weeks in order to be considered a durable overall responder.
Patients were selected using Rome 3 criteria modified for CIC and had (1) fewer than 3 defecations per week, (2) loose stools occurring rarely without laxatives, (3) inadequate criteria for irritable bowel syndrome with constipation (IBS-C), and (4) at least two of the following applied to at least 25% of defecations: (a) straining during evacuation, (b) lumpy or hard stools, (c) sensation of anorectal obstruction or blockage. Rome 3 requires patients to fulfill the criteria for the last 3 months with symptom onset at least 6 months prior to diagnosis.

[1] = Week 2, 6 mg, ITT Population-Excluding Duplicate Patients
[2] = Week 2, Active Combined, ITT Population-Excluding Duplicate Patients
[3] = Week 2, Active Combined, ITT Population
[4] = Week 3, 3 mg, ITT Population-Excluding Duplicate Patients
[5] = Week 3, 6 mg, ITT Population-Excluding Duplicate Patients
[6] = Week 3, Active Combined, ITT Population-Excluding Duplicate Patients
[7] = Week 3, Active Combined, ITT Population
[8] = Week 4, 3 mg, ITT Population-Excluding Duplicate Patients
[9] = Week 4, 6 mg, ITT Population-Excluding Duplicate Patients
[10] = Week 4, Active Combined, ITT Population-Excluding Duplicate Patients
[11] = Week 4, Active Combined, ITT Population
[12] = Week 5, 3 mg, ITT Population-Excluding Duplicate Patients
[13] = Week 5, 6 mg, ITT Population-Excluding Duplicate Patients
[14] = Week 5, Active Combined, ITT Population-Excluding Duplicate Patients

## Asn^1-Asp^2-Glu^3-Cys^4-Glu^5-Leu^6-Cys^7-Val^8-Asn^9-Val^10-Ala^11-Cys^12-Thr^13-Gly^14-Cys^15-Leu^16 (NDECELCVNVACTGCL; disulfide 4-12, 7-15) [Plecanatide, uroguanylin analogue, guanylate cyclase-C agonist; (C4:C12, C7:C15) bicycle peptide]
Week 2, 6 mg minus placebo, All Randomized (includes Duplicate Patients)
  Difference in Proportions (adjusted): 0.114
Week 2, 6 mg vs placebo, All Randomized (includes Duplicate Patients)
  Odds Ratio (adjusted): 0.513
Week 2, 6 mg, All Randomized (includes Duplicate Patients)
  CSBM Weekly Responders, n (%): 132 (28.0) n (%)
Week 2, 6 mg, ITT Population
  CSBM Weekly Responders, n (%): 123 (27.4) n (%)
  Non-Responders, n (%): 326 (72.6) n (%)
[1]
  CSBM Weekly Responders, n (%): 123 (27.8) n (%)
  Non-Responders, n (%): 320 (72.2) n (%)
Week 2, Active Combined, All Randomized (includes Duplicate Patients)
  CSBM Weekly Responders, n (%): 252 (26.8) n (%)
Week 2, 3 mg minus placebo, ITT Population-Excluding Duplicate Patients
  Difference in Proportions (adjusted): 0.086
Week 2, 3 mg minus placebo, ITT Population
  Difference in Proportions (adjusted): 0.087
Week 2, 3 mg vs placebo, ITT Population-Excluding Duplicate Patients
  Odds Ratio (adjusted): 0.592
Week 2, 3 mg vs placebo, ITT Population
  Odds Ratio (adjusted): 0.59
Week 2, 6 mg minus placebo, ITT Population-Excluding Duplicate Patients
  Difference in Proportions (adjusted): 0.111
Week 2, 6 mg minus placebo, ITT Population
  Difference in Proportions (adjusted): 0.108
Week 2, 6 mg vs placebo, ITT Population-Excluding Duplicate Patients
  Odds Ratio (adjusted): 0.523
Week 2, 6 mg vs placebo, ITT Population
  Odds Ratio (adjusted): 0.53
[2]
  CSBM Weekly Responders, n (%): 233 (26.6) n (%)
  Non-Responders, n (%): 644 (73.4) n (%)
[3]
  CSBM Weekly Responders, n (%): 235 (26.3) n (%)
  Non-Responders, n (%): 657 (73.7) n (%)
Week 3, 3 mg minus placebo, All Randomized (includes Duplicate Patients)
  Difference in Proportions (adjusted): 0.070
Week 3, 3 mg vs placebo, All Randomized (includes Duplicate Patients)
  Odds Ratio (adjusted): 0.691
Week 3, 3 mg, All Randomized (includes Duplicate Patients)
  CSBM Weekly Responders, n (%): 135 (28.7) n (%)
Week 3, 3 mg, ITT Population
  CSBM Weekly Responders, n (%): 125 (28.2) n (%)
  Non-Responders, n (%): 318 (71.8) n (%)
[4]
  CSBM Weekly Responders, n (%): 122 (28.1) n (%)
  Non-Responders, n (%): 312 (71.9) n (%)
Week 3, 6 mg minus placebo, All Randomized (includes Duplicate Patients)
  Difference in Proportions (adjusted): 0.056
Week 3, 6 mg vs placebo, All Randomized (includes Duplicate Patients)
  Odds Ratio (adjusted): 0.738
Week 3, 6 mg, ITT Population
  CSBM Weekly Responders, n (%): 120 (26.7) n (%)
  Non-Responders, n (%): 329 (73.3) n (%)
[5]
  CSBM Weekly Responders, n (%): 119 (26.9) n (%)
  Non-Responders, n (%): 324 (73.1) n (%)
Week 3, 3 mg minus placebo, ITT Population-Excluding Duplicate Patients
  Difference in Proportions (adjusted): 0.054
Week 3, 3 mg minus placebo, ITT Population
  Difference in Proportions (adjusted): 0.057
Week 3, 3 mg vs placebo, ITT Population-Excluding Duplicate Patients
  Odds Ratio (adjusted): 0.750
Week 3, 3 mg vs placebo, ITT Population
  Odds Ratio (adjusted): 0.739
Week 3, 6 mg minus placebo, ITT Population-Excluding Duplicate Patients
  Difference in Proportions (adjusted): 0.042
Week 3, 6 mg minus placebo, ITT Population
  Difference in Proportions (adjusted): 0.043
Week 3, 6 mg vs placebo, ITT Population-Excluding Duplicate Patients
  Odds Ratio (adjusted): 0.798
Week 3, 6 mg vs placebo, ITT Population
  Odds Ratio (adjusted): 0.796
[6]
  CSBM Weekly Responders, n (%): 241 (27.5) n (%)
  Non-Responders, n (%): 636 (72.5) n (%)
[7]
  CSBM Weekly Responders, n (%): 245 (27.5) n (%)
  Non-Responders, n (%): 647 (72.5) n (%)
Week 4, 3 mg minus placebo, All Randomized (includes Duplicate Patients)
  Difference in Proportions (adjusted): 0.093
Week 4, 3 mg vs placebo, All Randomized (includes Duplicate Patients)
  Odds Ratio (adjusted): 0.611
Week 4, 3 mg, ITT Population
  CSBM Weekly Responders, n (%): 132 (29.8) n (%)
  Non-Responders, n (%): 311 (70.2) n (%)
[8]
  CSBM Weekly Responders, n (%): 130 (30.0) n (%)
  Non-Responders, n (%): 304 (70.0) n (%)
Week 4, 6 mg minus placebo, All Randomized (includes Duplicate Patients)
  Difference in Proportions (adjusted): 0.082
Week 4, 6 mg vs placebo, All Randomized (includes Duplicate Patients)
  Odds Ratio (adjusted): 0.644
Week 4, 6 mg, ITT Population
  CSBM Weekly Responders, n (%): 127 (28.3) n (%)
  Non-Responders, n (%): 322 (71.7) n (%)
[9]
  CSBM Weekly Responders, n (%): 126 (28.4) n (%)
  Non-Responders, n (%): 317 (71.6) n (%)
Week 4, 3 mg minus placebo, ITT Population-Excluding Duplicate Patients
  Difference in Proportions (adjusted): 0.082
Week 4, 3 mg minus placebo, ITT Population
  Difference in Proportions (adjusted): 0.082
Week 4, 3 mg vs placebo, ITT Population-Excluding Duplicate Patients
  Odds Ratio (adjusted): 0.650
Week 4, 3 mg vs placebo, ITT Population
  Odds Ratio (adjusted): 0.648
Week 4, 6 mg minus placebo, ITT Population-Excluding Duplicate Patients
  Difference in Proportions (adjusted): 0.067
Week 4, 6 mg minus placebo, ITT Population
  Difference in Proportions (adjusted): 0.067
Week 4, 6 mg vs placebo, ITT Population-Excluding Duplicate Patients
  Odds Ratio (adjusted): 0.698
Week 4, 6 mg vs placebo, ITT Population
  Odds Ratio (adjusted): 0.697
[10]
  CSBM Weekly Responders, n (%): 256 (29.2) n (%)
  Non-Responders, n (%): 621 (70.8) n (%)
[11]
  CSBM Weekly Responders, n (%): 259 (29.0) n (%)
  Non-Responders, n (%): 633 (71.0) n (%)
Week 5, 3 mg minus placebo, All Randomized (includes Duplicate Patients)
  Difference in Proportions (adjusted): 0.119
Week 5, 3 mg vs placebo, All Randomized (includes Duplicate Patients)
  Odds Ratio (adjusted): 0.560
Week 5, 3 mg, ITT Population
  CSBM Weekly Responders, n (%): 154 (34.8) n (%)
  Non-Responders, n (%): 289 (65.2) n (%)
[12]
  CSBM Weekly Responders, n (%): 153 (35.3) n (%)
  Non-Responders, n (%): 281 (64.7) n (%)
Week 5, 6 mg minus placebo, All Randomized (includes Duplicate Patients)
  Difference in Proportions (adjusted): 0.061
Week 5, 6 mg vs placebo, All Randomized (includes Duplicate Patients)
  Odds Ratio (adjusted): 0.731
Week 5, 6 mg, ITT Population
  CSBM Weekly Responders, n (%): 133 (29.6) n (%)
  Non-Responders, n (%): 316 (70.4) n (%)
[13]
  CSBM Weekly Responders, n (%): 132 (29.8) n (%)
  Non-Responders, n (%): 311 (70.2) n (%)
Week 5, 3 mg minus placebo, ITT Population-Excluding Duplicate Patients
  Difference in Proportions (adjusted): 0.107
Week 5, 3 mg minus placebo, ITT Population
  Difference in Proportions (adjusted): 0.105
Week 5, 3 mg vs placebo, ITT Population-Excluding Duplicate Patients
  Odds Ratio (adjusted): 0.596
Week 5, 3 mg vs placebo, ITT Population
  Odds Ratio (adjusted): 0.602
Week 5, 6 mg minus placebo, ITT Population-Excluding Duplicate Patients
  Difference in Proportions (adjusted): 0.053
Week 5, 6 mg minus placebo, ITT Population
  Difference in Proportions (adjusted): 0.054
Week 5, 6 mg vs placebo, ITT Population-Excluding Duplicate Patients
  Odds Ratio (adjusted): 0.764
Week 5, 6 mg vs placebo, ITT Population
  Odds Ratio (adjusted): 0.762
[14]
  CSBM Weekly Responders, n (%): 285 (32.5) n (%)
  Non-Responders, n (%): 592 (67.5) n (%)
Week 5, Active Combined, ITT Population
  CSBM Weekly Responders, n (%): 287 (32.2) n (%)
